“And” between values parts separate entries of the source, which are not always exact repeats. Identical values can stand only once.
System: 299254-011-R-J1-PDC complex spheroids viability
Assay: Anticancer human tumor 299254-011-R-J1-PDC patient-derived melanoma cell line growth inhibition [GQUAD]
Settings: for viability, T/C: stronger effect = lower value
Description: DNA G-quadruplex Stabilizer Agents in Combinations in Complex Spheroids
A high-throughput screen of multi-cell type tumor spheroids was designed to identify active combinations of DNA G-quadruplex stabilizer agents and targeted small molecules. Complex spheroids include a stromal component modeled by human endothelial cells (HUVEC) and fibroblasts modeled by human mesenchymal stem cells (MSCs). The concentration ranges selected for each drug and investigational agent were based upon clinically achievable concentrations if the clinical Cmax of the agent was known.
Compounds. The drugs and investigational agents: pidnarulex (CX-5461; NSC782164), APTO-253 (NSC789042), BRACO-19 (NSC847499), peposertib (NSC802822), ceralasertib (NSC780249), elimusertib (NSC800525), camonsertib (NSC841442), AZD-1390 (NSC803789), olaparib (NSC753686), talazoparib (NSC767125), ART-558 (NSC835418), sotorasib (NSC818433), MRTX-1133 (NSC836407), SN-38 (NSC673596), topotecan (NSC609699), etoposide (NSC141540), doxorubicin (NSC123127), gemcitabine (NSC613327), 5-fluorouracil (NSC19893), paclitaxel (NSC125973), vemurafenib (NSC761431), panobinostat (NSC761190), R-306465 (JNJ-16241199; NSC773264), adavosertib (NSC754352), TP-3654 (NSC805149), carboplatin (NSC241240), KSQ-4279 (NSC840948), and staurosporine (NSC755774) were obtained from the National Cancer Institute (NCI) Developmental Therapeutics Program Chemical Repository (34). The FDA-approved anticancer drug set is available from the NCI Developmental Therapeutics Program. […] The stock solutions were prepared in dimethyl sulfoxide (DMSO, Sigma-Aldrich, St. Louis, MO, cat. D2650) at 800-fold the tested concentration and stored at -70 degrees C prior to their use. All drugs and investigational agents were tested over a range starting from a high concentration at or near the clinical Cmax and decreasing in half-log increments. If the clinical Cmax for an agent had not been determined, the highest concentration tested was 10 microM.
2.3 Cell Culture. All cells were maintained in an incubator at 37 degrees C and 5% CO2 with 95% humidity. The PDC lines were cultured according to standard operating procedures established by the NCI PDMR. All PDCs were thawed and cultured in Matrigel-coated flasks prepared with a working solution of 1X Ham's F-12 nutrient mix, without supplementation (Invitrogen, cat. 11765054), 100 U/mL penicillin-streptomycin (Invitrogen, cat. 15140122), and 2.5% Matrigel (Corning Inc., cat. 354248) for the first three passages. The 857933-349-R-J2-PDC line was cultured in 6C/Colon 1B media, which includes advanced DMEM/F-12 (Thermo Fisher Scientific, cat. 12634028), 10 mM HEPES (Thermo Fisher Scientific, cat. 15630080), 1X GlutaMAX supplement (Thermo Fisher Scientific, cat. 35050061), 0.1 mg/mL primocin (InvivoGen, cat. ant-pm-2), 10% defined fetal bovine serum, heat inactivated (HyClone Laboratories Inc., cat. SH30070.03HI), 50% L-WRN conditioned media (ATCC, cat. CRL-3276), 1.25 mM N-Acetyl-L-cysteine (Sigma-Aldrich, cat. A9165), 10 mM nicotinamide (Sigma-Aldrich, cat. N0636), 1X B-27 supplement (Thermo Fisher Scientific, cat. 17504044), 1X N-2 supplement (Thermo Fisher Scientific, cat. 17502048), 10 microM Y-27632 dihydrochloride (Tocris Bioscience, cat. 1254), and 50 ng/mL human EGF recombinant protein (Thermo Fisher Scientific, cat. PHG0311). The 485176-168-R4-J1-PDC line was cultured in Panc media, which includes all 6C/Colon 1B media components plus 100 ng/mL human FGF-10 (Thermo Fisher Scientific, cat. 100-26), 500 nM SB-431542 (Selleckchem, cat. S1067), and gastrin (Tocris, cat. 3006).
[…]
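Also: spheroids exposed to the agents for seven days before readout.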
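For viability, T/C in this document: percent viability relative to DMSO vehicle control wells = 100%.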

Cc1[nH]c2ccccc2c1CCNCc1ccc(/C=C/C(=O)NO)cc1
viability, T/C (compound 0.000999 µM): 99.9% and 96.8% and 89.5%
viability, T/C (compound 0.00316 µM): 87.9% and 114% and 103%
viability, T/C (compound 0.00999 µM): 94.2% and 94.3% and 96%
viability, T/C (compound 0.0316 µM): 96.9% and 88.8% and 85.4%
viability, T/C (compound 0.0999 µM): 60.7% and 72.7% and 67.3%
viability, T/C (compound 0.316 µM): 19.8% and 19.1% and 16.6%
IC50 (curve of compound): 0.135 µM and 0.159 µM and 0.147 µM

COc1ccc([C@@H](O)c2cc(-c3ncnc4cc(N5CCOCC5)ccc34)c(F)cc2Cl)nn1
viability, T/C (compound 0.0316 µM): 119% and 95% and 106%
viability, T/C (compound 0.1 µM): 103% and 97.4% and 85.3%
viability, T/C (compound 0.316 µM): 121% and 93.8% and 102%
viability, T/C (compound 1 µM): 89.3% and 96.7% and 82.5%
viability, T/C (compound 3.16 µM): 90.7% and 87.1% and 84.1%
viability, T/C (compound 10 µM): 43.1% and 49.8% and 47%
IC50 (curve of compound): 8.53 µM and 9.96 µM and 9.31 µM

C=CCn1c(=O)c2cnc(Nc3ccc(N4CCN(C)CC4)cc3)nc2n1-c1cccc(C(C)(C)O)n1
viability, T/C (compound 0.0316 µM): 114% and 117% and 102%
viability, T/C (compound 0.1 µM): 98.4% and 92.5% and 100%
viability, T/C (compound 0.316 µM): 87.5% and 73% and 83.4%
viability, T/C (compound 1 µM): 60% and 62% and 52.8%
viability, T/C (compound 3.16 µM): 32.2% and 34% and 37.9%
viability, T/C (compound 10 µM): 36.5% and 32.4% and 20.3%
IC50 (curve of compound): 1.58 µM and 1.57 µM and 1.38 µM

Cn1ncnc1[C@H]1c2n[nH]c(=O)c3cc(F)cc(c23)N[C@@H]1c1ccc(F)cc1
viability, T/C (compound 0.000999 µM): 105% (2×) and 104%
viability, T/C (compound 0.00316 µM): 103% and 101% and 89.8%
viability, T/C (compound 0.00999 µM): 92.7% and 94.7% and 116%
viability, T/C (compound 0.0316 µM): 107% and 106% and 84.5%
viability, T/C (compound 0.0999 µM): 88.5% and 94.8% and 95.9%
viability, T/C (compound 0.316 µM): 125% and 105% and 92.4%
IC50 (curve of compound): > 0.316 µM

Cc1cccc(N(C)C(=O)C2C(O)CCN2c2nc(C)cc(C(F)(F)F)c2C#N)c1 (centres undefined)
viability, T/C (compound 0.0316 µM): 96.8% and 97.5% and 104%
viability, T/C (compound 0.1 µM): 96.3% and 100% and 97.4%
viability, T/C (compound 0.316 µM): 99.6% and 98.6% and 93.5%
viability, T/C (compound 1 µM): 96.4% and 89.9% and 93.7%
viability, T/C (compound 3.16 µM): 103% and 83.6% and 97%
viability, T/C (compound 10 µM): 79.5% and 81.2% and 102%
IC50 (curve of compound): > 10 µM

O=c1[nH]cc(F)c(=O)[nH]1
viability, T/C (compound 0.0316 µM): 117% and 81.7% and 100%
viability, T/C (compound 0.1 µM): 110% and 105% and 96.5%
viability, T/C (compound 0.316 µM): 114% and 113% and 103%
viability, T/C (compound 1 µM): 103% and 86.2% and 122%
viability, T/C (compound 3.16 µM): 114% and 113% and 83.2%
viability, T/C (compound 10 µM): 103% and 85.3% and 87.8%
IC50 (curve of compound): > 10 µM

O=C(c1cc(Cc2n[nH]c(=O)c3ccccc23)ccc1F)N1CCN(C(=O)C2CC2)CC1 + Cc1[nH]c2ccc(F)cc2c1-c1nc2c3cccnc3c3ncccc3c2[nH]1
IC50 (curve of first compound, second compound 0.0316 µM): > 10 µM
IC50 (curve of first compound, second compound 0.1 µM): > 10 µM
IC50 (curve of first compound, second compound 0.316 µM): > 10 µM
IC50 (curve of first compound, second compound 1 µM): > 10 µM
IC50 (curve of first compound, second compound 3.16 µM): > 10 µM
IC50 (curve of first compound, second compound 10 µM): > 10 µM
viability, T/C (second compound 0.0316 µM, first compound 0.0316 µM): 109%
viability, T/C (second compound 0.0316 µM, first compound 0.1 µM): 102%
viability, T/C (second compound 0.0316 µM, first compound 0.316 µM): 102%
viability, T/C (second compound 0.0316 µM, first compound 1 µM): 102%
viability, T/C (second compound 0.0316 µM, first compound 3.16 µM): 99%
viability, T/C (second compound 0.0316 µM, first compound 10 µM): 91.1%
viability, T/C (second compound 0.1 µM, first compound 0.0316 µM): 95.1%
viability, T/C (second compound 0.1 µM, first compound 0.1 µM): 86.3%
viability, T/C (second compound 0.1 µM, first compound 0.316 µM): 97.1%
viability, T/C (second compound 0.1 µM, first compound 1 µM): 110%
viability, T/C (second compound 0.1 µM, first compound 3.16 µM): 113%
viability, T/C (second compound 0.1 µM, first compound 10 µM): 89.9%
viability, T/C (second compound 0.316 µM, first compound 0.0316 µM): 89.9%
viability, T/C (second compound 0.316 µM, first compound 0.1 µM): 109%
viability, T/C (second compound 0.316 µM, first compound 0.316 µM): 90.2%
viability, T/C (second compound 0.316 µM, first compound 1 µM): 95.1%
viability, T/C (second compound 0.316 µM, first compound 3.16 µM): 103%
viability, T/C (second compound 0.316 µM, first compound 10 µM): 104%
viability, T/C (second compound 1 µM, first compound 0.0316 µM): 88.8%
viability, T/C (second compound 1 µM, first compound 0.1 µM): 125%
viability, T/C (second compound 1 µM, first compound 0.316 µM): 127%
viability, T/C (second compound 1 µM, first compound 1 µM): 115%
viability, T/C (second compound 1 µM, first compound 3.16 µM): 90.4%
viability, T/C (second compound 1 µM, first compound 10 µM): 88.5%
viability, T/C (second compound 3.16 µM, first compound 0.0316 µM): 91.3%
viability, T/C (second compound 3.16 µM, first compound 0.1 µM): 95.7%
viability, T/C (second compound 3.16 µM, first compound 0.316 µM): 93.2%
viability, T/C (second compound 3.16 µM, first compound 1 µM): 87.5%
viability, T/C (second compound 3.16 µM, first compound 3.16 µM): 104%
viability, T/C (second compound 3.16 µM, first compound 10 µM): 85%
viability, T/C (second compound 10 µM, first compound 0.0316 µM): 91.6%
viability, T/C (second compound 10 µM, first compound 0.1 µM): 97.2%
viability, T/C (second compound 10 µM, first compound 0.316 µM): 106%
viability, T/C (second compound 10 µM, first compound 1 µM): 104%
viability, T/C (second compound 10 µM, first compound 3.16 µM): 92.5%
viability, T/C (second compound 10 µM, first compound 10 µM): 93%

Source: PubChem BioAssay AID2060513 (Molecular Pharmacology Branch, DTP, NCI, 2025)
